Values joined by “and” are separate entries in the source; they are usually repeats but may differ in a detail not shown here. Equal values may be shown once.
Tested on: collagen-induced arthritis in Lewis rats
Test: Collagen-induced arthritis (CIA) model in rats: body weight, paw volume, clinical scores, clinical observations
[1] = Group 5 (CIA + Example 101 3 mg/kg), Day 13, individual animals, 3 mg/kg
[2] = Group 5 (CIA + Example 101 3 mg/kg), Day 16, individual animals, 3 mg/kg
[3] = Group 5 (CIA + Example 101 3 mg/kg), Day 17, individual animals, 3 mg/kg
[4] = Group 5 (CIA + Example 101 3 mg/kg), Day 20, individual animals, 3 mg/kg
[5] = Group 6 (CIA + Example 101 10 mg/kg), Day 2, individual animals, 10 mg/kg
[6] = Group 6 (CIA + Example 101 10 mg/kg), Day 5, individual animals, 10 mg/kg
[7] = Group 6 (CIA + Example 101 10 mg/kg), Day 6, individual animals, 10 mg/kg
[8] = Group 6 (CIA + Example 101 10 mg/kg), Day 7, individual animals, 10 mg/kg
[9] = Group 6 (CIA + Example 101 10 mg/kg), Day 13, individual animals, 10 mg/kg
[10] = Group 6 (CIA + Example 101 10 mg/kg), Day 15, individual animals, 10 mg/kg
[11] = Group 6 (CIA + Example 101 10 mg/kg), Day 18, individual animals, 10 mg/kg
[12] = Group 6 (CIA + Example 101 10 mg/kg), Day 19, individual animals, 10 mg/kg
[13] = Group 6 (CIA + Example 101 10 mg/kg), Day 20, individual animals, 10 mg/kg
[14] = Group 7 (CIA + Example 101 30 mg/kg), Day 1, individual animals, 30 mg/kg
[15] = Group 7 (CIA + Example 101 30 mg/kg), Day 9, individual animals, 30 mg/kg
[16] = Group 7 (CIA + Example 101 30 mg/kg), Day 11, individual animals, 30 mg/kg
[17] = Group 7 (CIA + Example 101 30 mg/kg), Day 12, individual animals, 30 mg/kg
[18] = Group 7 (CIA + Example 101 30 mg/kg), Day 13, individual animals, 30 mg/kg
[19] = Group 7 (CIA + Example 101 30 mg/kg), Day 15, individual animals, 30 mg/kg
[20] = Group 7 (CIA + Example 101 30 mg/kg), Day 17, individual animals, 30 mg/kg
[21] = Group 7 (CIA + Example 101 30 mg/kg), Day 20, individual animals, 30 mg/kg
[22] = Group 7 (CIA + Example 101 30 mg/kg), Day 21, individual animals, 30 mg/kg

Structure (SMILES): CNC(=O)c1[nH]c(C(=O)NC2CCC2)cc1O[C@@H](C)c1ccccc1 [Example 101, N^5-cyclobutyl-N^2-methyl-3-(1-phenylethoxy)-1H-pyrrole-2,5-dicarboxamide]
- Animal body weight [1]: 180 g
- Animal body weight percent change [1]: 9.70%
- Animal body weight (Group 5 (CIA + Example 101 3 mg/kg), Day 14, individual animals, 3 mg/kg): 180 g
- Animal body weight [2]: 150 g and 170 g
- Animal body weight percent change [2]: 0.58%
- Animal body weight [3]: 170 g
- Animal body weight percent change [3]: −4.40%
- Animal body weight percent change (Group 5 (CIA + Example 101 3 mg/kg), Day 18, individual animals, 3 mg/kg): −4.40% and 0.00%
- Animal body weight (Group 5 (CIA + Example 101 3 mg/kg), Day 19, individual animals, 3 mg/kg): 150 g and 170 g
- Animal body weight [4]: 160 g and 170 g
- Animal body weight percent change [4]: −4.40% and 0.60%
- Animal body weight percent change (Group 5 (CIA + Example 101 3 mg/kg), Day 21, individual animals, 3 mg/kg): 0.60%
- Animal body weight percent change (Group 6 (CIA + Example 101 10 mg/kg), Day 0, individual animals): 0.00%
- Animal body weight (Group 6 (CIA + Example 101 10 mg/kg), Day 0, individual animals, 10 mg/kg): 170 g and 160 g
- Animal body weight percent change (Group 6 (CIA + Example 101 10 mg/kg), Day 1, individual animals, 10 mg/kg): 0.00% and 0.64% and 5.00%
- Animal body weight [5]: 160 g
- Animal body weight percent change [5]: 0.62%
- Animal body weight percent change (Group 6 (CIA + Example 101 10 mg/kg), Day 3, individual animals, 10 mg/kg): 0.59%
- Animal body weight percent change (Group 6 (CIA + Example 101 10 mg/kg), Day 4, individual animals, 10 mg/kg): 0.58% and 0.59% and 3.70% and −0.61% and 7.50%
- Animal body weight [6]: 170 g and 160 g
- Animal body weight percent change [6]: −0.62%
- Animal body weight [7]: 170 g
- Animal body weight percent change [7]: −1.76% and 10.00%
- Animal body weight [8]: 180 g
- Animal body weight percent change [8]: −0.61%
- Animal body weight (Group 6 (CIA + Example 101 10 mg/kg), Day 8, individual animals, 10 mg/kg): 180 g
- Animal body weight percent change (Group 6 (CIA + Example 101 10 mg/kg), Day 9, individual animals, 10 mg/kg): 3.70%
- Animal body weight percent change (Group 6 (CIA + Example 101 10 mg/kg), Day 10, individual animals, 10 mg/kg): 0.00%
- Animal body weight percent change (Group 6 (CIA + Example 101 10 mg/kg), Day 11, individual animals, 10 mg/kg): −0.59% and 0.62%
- Animal body weight [9]: 150 g and 160 g
- Animal body weight percent change [9]: 0.62% and −0.62%
- Animal body weight [10]: 170 g
- Animal body weight percent change [10]: −0.62%
- Animal body weight percent change (Group 6 (CIA + Example 101 10 mg/kg), Day 16, individual animals, 10 mg/kg): 0.00% and −0.62%
- Animal body weight percent change (Group 6 (CIA + Example 101 10 mg/kg), Day 17, individual animals, 10 mg/kg): 0.62% and 20.00%
- Animal body weight [11]: 160 g
- Animal body weight percent change [11]: 0.00%
- Animal body weight [12]: 170 g and 160 g (2×)
- Animal body weight percent change [12]: −0.58%
- Animal body weight [13]: 170 g
- Animal body weight percent change [13]: −0.62% and −0.61%
- Animal body weight percent change (Group 6 (CIA + Example 101 10 mg/kg), Day 21, individual animals, 10 mg/kg): −0.62%
- Animal body weight percent change (Group 7 (CIA + Example 101 30 mg/kg), Day 0, individual animals): 0.00%
- Animal body weight [14]: 160 g and 170 g
- Animal body weight percent change [14]: −0.61% and 1.20%
- Animal body weight (Group 7 (CIA + Example 101 30 mg/kg), Day 2, individual animals, 30 mg/kg): 170 g
- Animal body weight (Group 7 (CIA + Example 101 30 mg/kg), Day 3, individual animals, 30 mg/kg): 160 g
- Animal body weight (Group 7 (CIA + Example 101 30 mg/kg), Day 4, individual animals, 30 mg/kg): 160 g
- Animal body weight percent change (Group 7 (CIA + Example 101 30 mg/kg), Day 5, individual animals, 30 mg/kg): 0.00% and 0.61%
- Animal body weight percent change (Group 7 (CIA + Example 101 30 mg/kg), Day 7, individual animals, 30 mg/kg): 0.61%
- Animal body weight percent change (Group 7 (CIA + Example 101 30 mg/kg), Day 8, individual animals, 30 mg/kg): 7.10% and −0.61% (2×) and −0.60%
- Animal body weight [15]: 170 g
- Animal body weight percent change [15]: −0.58%
- Animal body weight percent change (Group 7 (CIA + Example 101 30 mg/kg), Day 10, individual animals, 30 mg/kg): −0.58% and 0.00% (2×)
- Animal body weight [16]: 170 g
- Animal body weight percent change [16]: 0.61%
- Animal body weight [17]: 170 g and 160 g
- Animal body weight percent change [17]: 1.20%
- Animal body weight [18]: 170 g and 160 g
- Animal body weight percent change [18]: −0.61% and 1.30%
- Animal body weight percent change (Group 7 (CIA + Example 101 30 mg/kg), Day 14, individual animals, 30 mg/kg): 2.60%
- Animal body weight [19]: 170 g and 160 g
- Animal body weight percent change [19]: 0.00% (2×) and 3.90%
- Animal body weight percent change (Group 7 (CIA + Example 101 30 mg/kg), Day 16, individual animals, 30 mg/kg): 0.65%
- Animal body weight [20]: 170 g
- Animal body weight percent change [20]: 1.30%
- Animal body weight percent change (Group 7 (CIA + Example 101 30 mg/kg), Day 18, individual animals, 30 mg/kg): −0.58% and −1.30%
- Animal body weight percent change (Group 7 (CIA + Example 101 30 mg/kg), Day 19, individual animals, 30 mg/kg): −1.20%
- Animal body weight [21]: 160 g
- Animal body weight percent change [21]: 6.10%
- Animal body weight [22]: 150 g
- Animal body weight percent change [22]: 6.10% and −2.60%

Reference: patent publication US20260000642A1 (Tay Therapeutics Limited, priority 2022, published 2026)
